Test system: 138582-337-R-J1-PDC spheroids with HUVEC/MSC, viability
Test: Anticancer human tumor 138582-337-R-J1-PDC patient-derived Merkel cell tumor cell line growth inhibition [IpAb]
Details: for IC50: curve of first compound; for viability, T/C: stronger effect = lower value
Procedure, shortened: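 Combinations with ipatasertib or abemaciclib were tested on tumour spheroids holding HUVEC (25%) and MSC (15%) alongside 60% malignant cells. Top concentration was at or near clinical Cmax (10 microM if undefined), descending in half-log steps.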

[1] = second compound 0.01 µM, first compound 0.0316 µM
[2] = second compound 0.01 µM, first compound 0.1 µM
[3] = second compound 0.01 µM, first compound 0.316 µM
[4] = second compound 0.01 µM, first compound 1 µM
[5] = second compound 0.01 µM, first compound 3.16 µM
[6] = second compound 0.01 µM, first compound 10 µM
[7] = second compound 0.0316 µM, first compound 0.0316 µM
[8] = second compound 0.0316 µM, first compound 0.1 µM
[9] = second compound 0.0316 µM, first compound 0.316 µM
[10] = second compound 0.0316 µM, first compound 1 µM
[11] = second compound 0.0316 µM, first compound 3.16 µM
[12] = second compound 0.0316 µM, first compound 10 µM
[13] = second compound 0.1 µM, first compound 0.0316 µM
[14] = second compound 0.1 µM, first compound 0.1 µM
[15] = second compound 0.1 µM, first compound 0.316 µM
[16] = second compound 0.1 µM, first compound 1 µM
[17] = second compound 0.1 µM, first compound 3.16 µM
[18] = second compound 0.1 µM, first compound 10 µM
[19] = second compound 0.316 µM, first compound 0.0316 µM
[20] = second compound 0.316 µM, first compound 0.1 µM
[21] = second compound 0.316 µM, first compound 0.316 µM
[22] = second compound 0.316 µM, first compound 1 µM
[23] = second compound 0.316 µM, first compound 3.16 µM
[24] = second compound 0.316 µM, first compound 10 µM
[25] = second compound 1 µM, first compound 0.0316 µM
[26] = second compound 1 µM, first compound 0.1 µM
[27] = second compound 1 µM, first compound 0.316 µM
[28] = second compound 1 µM, first compound 1 µM
[29] = second compound 1 µM, first compound 3.16 µM
[30] = second compound 1 µM, first compound 10 µM
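Note: spheroids exposed to compounds for seven days.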
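Throughout, for viability, T/C: 100% = DMSO vehicle control viability.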

| SMILES | IC50 (second compound 0.01 µM) | IC50 (second compound 0.0316 µM) | IC50 (second compound 0.1 µM) | IC50 (second compound 0.316 µM) | IC50 (second compound 1 µM) | viability, T/C [1] | viability, T/C [2] | viability, T/C [3] | viability, T/C [4] | viability, T/C [5] | viability, T/C [6] | viability, T/C [7] | viability, T/C [8] | viability, T/C [9] | viability, T/C [13] | viability, T/C [14] | viability, T/C [19] | viability, T/C [20] | viability, T/C [25] | viability, T/C [26] | also measured |
| --- | --- | --- | --- | --- | --- | --- | --- | --- | --- | --- | --- | --- | --- | --- | --- | --- | --- | --- | --- | --- | --- |
| C=CC(=O)N1CCN(c2nc(=O)n(-c3c(C)ccnc3C(C)C)c3nc(-c4c(O)cccc4F)c(F)cc23)C(C)C1 (stereo not given) + CCN1CCN(Cc2ccc(Nc3ncc(F)c(-c4cc(F)c5nc(C)n(C(C)C)c5c4)n3)nc2)CC1 | > 10000 nM | > 10000 nM | > 10000 nM | > 10000 nM | > 10000 nM | 107% | 107% | 121% | 121% | 143% | 176% | 98.7% | 95.7% | 90.7% | 83.7% | 90.6% | 94.8% | 94.3% | 104% | 96.8% | viability, T/C [10]: 116%; viability, T/C [11]: 125%; viability, T/C [12]: 186%; viability, T/C [15]: 104%; viability, T/C [16]: 119%; viability, T/C [17]: 139%; viability, T/C [18]: 218%; viability, T/C [21]: 92.8%; viability, T/C [22]: 105%; viability, T/C [23]: 144%; viability, T/C [24]: 229%; viability, T/C [27]: 111%; viability, T/C [28]: 118%; viability, T/C [29]: 135%; viability, T/C [30]: 282% |
| Cn1ncc(Cl)c1-c1cc(C(=O)NC(CN)Cc2cccc(F)c2)sc1Cl (stereo not given) + CCN1CCN(Cc2ccc(Nc3ncc(F)c(-c4cc(F)c5nc(C)n(C(C)C)c5c4)n3)nc2)CC1 | 1500 nM | 1270 nM | 1200 nM | 1190 nM | 792 nM | 88.8% | 73.4% | 61.9% | 50.3% | 50.6% | 0.19% | 83.8% | 70.8% | 58.5% | 84.4% | 84.6% | 92.8% | 81.8% | 94.2% | 95.3% | viability, T/C [10]: 50.2%; viability, T/C [11]: 45.4%; viability, T/C [12]: 0.24%; viability, T/C [15]: 61.1%; viability, T/C [16]: 48.9%; viability, T/C [17]: 40.7%; viability, T/C [18]: 0.17%; viability, T/C [21]: 68%; viability, T/C [22]: 52.1%; viability, T/C [23]: 35.3%; viability, T/C [24]: 0.21%; viability, T/C [27]: 70.3%; viability, T/C [28]: 39.9%; viability, T/C [29]: 25.1%; viability, T/C [30]: 0.27% |
| Cn1ncnc1[C@H]1c2n[nH]c(=O)c3cc(F)cc(c23)N[C@@H]1c1ccc(F)cc1 + CCN1CCN(Cc2ccc(Nc3ncc(F)c(-c4cc(F)c5nc(C)n(C(C)C)c5c4)n3)nc2)CC1 | > 100 nM | > 100 nM | > 100 nM | > 100 nM | > 100 nM | 78.5% | 78.9% | – | – | – | – | 69.8% | 66.2% | – | 90.8% | 86.4% | 78.3% | 72.4% | 90.9% | 91.2% | viability, T/C (second compound 0.01 µM, first compound 0.000316 µM): 102%; viability, T/C (second compound 0.01 µM, first compound 0.001 µM): 93.4%; viability, T/C (second compound 0.01 µM, first compound 0.00316 µM): 91.8%; viability, T/C (second compound 0.01 µM, first compound 0.01 µM): 80.7%; viability, T/C (second compound 0.0316 µM, first compound 0.000316 µM): 96.3%; viability, T/C (second compound 0.0316 µM, first compound 0.001 µM): 102%; viability, T/C (second compound 0.0316 µM, first compound 0.00316 µM): 89.5%; viability, T/C (second compound 0.0316 µM, first compound 0.01 µM): 76.5%; viability, T/C (second compound 0.1 µM, first compound 0.000316 µM): 89.7%; viability, T/C (second compound 0.1 µM, first compound 0.001 µM): 89.4%; viability, T/C (second compound 0.1 µM, first compound 0.00316 µM): 76.7%; viability, T/C (second compound 0.1 µM, first compound 0.01 µM): 78.4%; viability, T/C (second compound 0.316 µM, first compound 0.000316 µM): 85%; viability, T/C (second compound 0.316 µM, first compound 0.001 µM): 95.8%; viability, T/C (second compound 0.316 µM, first compound 0.00316 µM): 87.2%; viability, T/C (second compound 0.316 µM, first compound 0.01 µM): 80.3%; viability, T/C (second compound 1 µM, first compound 0.000316 µM): 99%; viability, T/C (second compound 1 µM, first compound 0.001 µM): 95.7%; viability, T/C (second compound 1 µM, first compound 0.00316 µM): 87.3%; viability, T/C (second compound 1 µM, first compound 0.01 µM): 79.5% |

— PubChem BioAssay AID2060343 (Molecular Pharmacology Branch, DTP, NCI, 2025)
